Laboratory results reported in US7582678B2, “Use of branched-chain fatty acids and derivatives thereof for the treatment of pain” (D-PHARM Limited, priority 1998, dated 2009).

How the values were obtained:
[1] = test system: Male CD-1 mice; assay: Tail flick assay (radiated heat, acute pain) in mice;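 also: infrared heat aimed at the tail of restrained mice, time until tail flick recorded as mean of 2-3 readings, 4-8 animals per group, compared with vehicle-treated animals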
Method: The analgesic effect of branched-chain fatty acids (BFAs) and their DP-BFAs derivatives was tested by using the tail flick assay in mice.
This model uses radiated infrared (IR) heat source that is directed to the tail of a restrained mouse. The threshold of tolerance for heat is indicated by a time-meter, which is stopped instantaneously when the tail flicks. This time is defined as ‘withdrawal latency’.
Male CD-1 mice weighing around 25-30 grams (4-8 animals per each dose of the tested compound) were used. The animals were put in clear plastic cages above an IR source (7371-Plantar™ Analgesia Instrument, UGO Basile), where the IR generator is placed directly underneath the tail of the mouse and the light beam is focused on the proximal third of the tail.
The withdrawal latency, namely the time interval from the starting of the infrared radiation until the animal feels pain and flicks its tail is determined. The initial withdrawal latency for each animal was measured at t=0 and was determined as its baseline threshold.
In order to determine the analgesic effect of a tested drug, the drug (10 to 200 mg/kg body weight) was administered to mice either orally (p.o.) or by intraperitoneal (i.p.) or subcutaneous (s.c.) injection. Withdrawal latency was determined at different time points post-administration of the drug as indicated. Each reading was performed 2-3 times and the mean-value was calculated. […] The withdrawal latency at each time point post injection is the average of 4-8 animals per group. […] Paired T-test was used to assess significance in comparison to the baseline value (t=0). Morphine was used as a positive control (2 animals per dose).

[2] = test system: Sprague-Dawley (SD) rats; details: rats day 15 post-CCI operation, s.c. 150 mg/kg, vs vehicle (FIG. 3)
Method: Male, Sprague-Dawley (SD) rats, weighing around 200-250 grams, were anesthetized by i.p. injection of ketamine (50 mg/kg) and xylazine (10 mg/kg). The common sciatic nerve was exposed at the middle of the thigh of the hind right foot. Four ligatures were tied loosely around the nerve with a spacing of about 1 mm between them. The incision was closed by suturing the inner layers of the muscles with chromic gut suture, and the outer skin with silk suture. Five to seven days later the nociceptive threshold can be evaluated by quantifying sensitivity of the foot to mechanical stimuli or cold temperatures to assess allodynia.
The mechanical sensitivity of the animal foot is measured using the von Frey test [Kim and Chung (1992) Pain 50: 355-63]. An automated von Frey test was employed, in which a von Frey filament is applied to the plantar surface of the animal foot and the filament is pushed automatically at a preset rate of force/time increments into the plantar. Each measurement was repeated 2-3 times in each epsilateral and contralateral foot of the tested animals. The time lapsed from applying of pressure until withdrawal of the foot from the innocuous stimulus was measured in the treated animals and compared to the baseline values obtained for each animal prior to treatment.
As a control served CCI-operated animals injected with vehicle only.

[3] = test system: CD-1 mice; details: 150 mg/kg single dose one hour before formalin; vs non-treated animals; 10 to 35 minutes after formalin (chronic phase); p<0.05 (FIG. 2)
Method: Evaluation of pain is based on the observed behavior of the animals after the formalin injection.
Formalin stock (Frutarom Ltd., Israel; cat. # 5551830; 3.4-3.8% formaldehyde content) was diluted into 2.5% formalin solution in saline. 25 μl of the 2.5% formalin solution was injected into the plantar surface of CD-1 mice foot using a syringe with a 29G needle. The animals' reaction, apparent as licking and lifting the paw off the ground, is noticed immediately after injection. Each of the treated animals and control naive animals injected only with formalin was monitored for a period of 40 min, through 5 minutes time segments (4-6 animals in a group).
Evaluation of pain was performed by recording the time the animal spent licking its paw. A computerized program was used for timing the total number of seconds each animal spent licking its paw during the preset period of 5 min. This step was repeated for up to 40 min (8 intervals of 5 min).

8-Pentadecanyl phosphocholine
Withdrawal latency (% of vehicle) ([1]; I.P., 100 mg/kg, 15 min post-injection): 235% of vehicle | Withdrawal latency (% of vehicle) ([1]; I.P., 100 mg/kg, 45 min post-injection): 134% of vehicle | Withdrawal latency (% of vehicle) ([1]; I.P., 100 mg/kg, 75 min post-injection): 177% of vehicle | Withdrawal latency (% of vehicle) ([1]; I.P., 100 mg/kg, 105 min post-injection): 134% of vehicle | Withdrawal latency (% of vehicle) ([1]; I.P., 100 mg/kg, 135 min post-injection): 141% of vehicle | Withdrawal latency (% of vehicle) ([1]; I.P., 100 mg/kg, 285 min post-injection): 145% of vehicle | Withdrawal latency (% of vehicle) ([1]; P.O., 50 mg/kg, 45 min post-administration): 149% of vehicle | Withdrawal latency (% of vehicle) ([1]; P.O., 50 mg/kg, 75 min post-administration): 157% of vehicle | Withdrawal latency (% of vehicle) ([1]; P.O., 50 mg/kg, 105 min post-administration): 145% of vehicle | Withdrawal latency (% of vehicle) ([1]; P.O., 50 mg/kg, 135 min post-administration): 137% of vehicle | Withdrawal latency (% of vehicle) ([1]; P.O., 50 mg/kg, 285 min post-administration): 127% of vehicle | Withdrawal latency (% of vehicle) ([1]; P.O., 50 mg/kg, 345 min post-administration): 124% of vehicle | Withdrawal latency (% of vehicle) ([1]; S.C., 25 mg/kg, 45 min post-injection): 147% of vehicle | Withdrawal latency (% of vehicle) ([1]; S.C., 25 mg/kg, 75 min post-injection): 143% of vehicle | Withdrawal latency (% of vehicle) ([1]; S.C., 25 mg/kg, 105 min post-injection): 165% of vehicle | Withdrawal latency (% of vehicle) ([1]; S.C., 25 mg/kg, 135 min post-injection): 169% of vehicle | Withdrawal latency (% of vehicle) ([1]; S.C., 25 mg/kg, 285 min post-injection): 141% of vehicle | Withdrawal latency (% of vehicle) ([1]; S.C., 25 mg/kg, 345 min post-injection): 130% of vehicle | Withdrawal latency (% of vehicle) ([1]; S.C., 150 mg/kg, 45 min post-injection): 194% of vehicle | Withdrawal latency (% of vehicle) ([1]; S.C., 150 mg/kg, 75 min post-injection): 217% of vehicle | Withdrawal latency (% of vehicle) ([1]; S.C., 150 mg/kg, 105 min post-injection): 186% of vehicle | Withdrawal latency (% of vehicle) ([1]; S.C., 150 mg/kg, 135 min post-injection): 175% of vehicle | Withdrawal latency (% of vehicle) ([1]; S.C., 150 mg/kg, 285 min post-injection): 184% of vehicle | Withdrawal latency (% of vehicle) ([1]; S.C., 150 mg/kg, 345 min post-injection): 175% of vehicle | increase in withdrawal latency ([1]; s.c., 150 mg/kg, 5-6 hours post injection): around 80% | potency ranking in the assay ([1]; tail flick): most potent | size of analgesic effect, ranking among tested compounds ([1]; tail flick, Table 1): largest analgesic effects | withdrawal threshold (mechanical allodynia, von Frey) [2]: increased withdrawal threshold | time the animal spent licking its paw [3]: significant less time licking their paw
